Key:
[1] = system: Staphylococcus aureus (strain Newman); experiment: Bacterial studies, blue light 9.5 J/cm^2 or dark, drop plate CFU (Examples 4-6); format: cell-based
Procedure: (§1) Briefly, the components were mixed and dissolved in warm water (˜50° C.) before evaporation of the solvent at 45° C. for 15 min with a rotatory evaporator. The resulting NADES were transferred to polypropylene tubes with a tight cap. The individual components of each NADES were also prepared as solutions in MilliQ water in a concentration similar to the concentration in the final NADES preparation. All samples were diluted 1:1 with bacterial suspension (OD600 0.03) or 1:50, 1:100 and 1:200 with phosphate buffered saline (PBS, pH 7.4, Lonza, Verviers, Belgium) prior to dilution 1:1 with the bacterial suspension immediately before the bacterial studies.
(§2) The overnight cultures were centrifuged (4000 g, 22° C., 10 min), the medium replaced and diluted with PBS to OD600 0.03. The bacterial suspensions were mixed 1:1 with the samples described in the previous paragraph. A volume of 200 μl from each sample was transferred to the first and seventh well on each row on a 96 well plate (Nunclon sterile 96 well plate with lid, Thermo Fischer Scientific, Waltham, Mass.). Two identical plates were made each time, one for light treatment and one for dark controls. The plates containing E. faecalis or S. aureus samples were incubated for 10 min (37° C.), irradiated with blue light for 10 min (corresponding to 9.5 J/cm^2±10%) and incubated again for 10 min (37° C.). The plates containing E. coli samples were incubated for 30 min (37° C.), irradiated with blue light for 30 min (corresponding to 27 J/cm^2±10%) and incubated again for 30 min (37° C.). The plates containing the dark controls were treated similarly, but covered with aluminium foil during the irradiation period and placed beside the irradiation chamber. […] After treatment, the samples were diluted according to the 6×6 drop plate procedure, modified to 4×4 (each treatment was performed with four parallels). A volume of 15 μl from each dilution was then plated onto TSB agar plates, left to dry for a few minutes and incubated overnight (37° C.). Viable colony forming units (CFU)/ml were calculated by counting the CFUs, multiplying with the dilution factor and dividing by the application volume.
(§3) Briefly, the components of each NADES (see Table 7) were mixed and dissolved in a round flask with 50 ml of warm water (˜50° C.) before evaporation of the solvent at 45° C. for 15 min with a rotatory evaporator. TMAP (Frontier Scientific, Inc., Logan, Utah, USA) was then added to each NADES. […] The final concentration of TMAP was 1 nM. Samples of TMAP were also prepared in purified water (MilliQ) to be 1 nM after dilution 1:200 with PBS (pH 7.4, Lonza, Verviers, Belgium) or with a 6.8 mM citric acid solution (pH ˜4) and bacterial suspension.
(§4) TCPP (Frontier Scientific, Inc., Logan, Utah, USA) was added to each NADES. […] The final TCPP concentrations were 0.5 nM-1 μM. Samples of TCPP were also prepared in ethanol to be 1 nM-1 μM after dilution 1:200 with PBS (pH 7.4, Lonza, Verviers, Belgium) or with a 6.8 mM citric acid solution (pH ˜4) and bacterial suspension.

[2] = system: Enterococcus faecalis (ATCC 19433); experiment: as above; format: cell-based
Procedure: as §1, §2, §3, §4

[3] = system: Escherichia coli (ATCC 25922); experiment: Bacterial studies, blue light 27 J/cm^2 or dark, drop plate CFU (Examples 4-6); format: cell-based
Procedure: as §1, §2, §3, §4

[4] = system: C. albicans (ATCC CRM-10231); experiment: Antifungal toxicity studies, blue light 27 J/cm^2 or dark (Example 8); format: cell-based, Candida albicans; conditions: 2.1 M fructose, […] xylitol, […] sucrose, 5 M choline chloride diluted 1:1 or 1:100, dark or light, p>0.05
Procedure: Briefly, the components of each NADES (see Table 13) were mixed and dissolved in a round flask with 50 ml of warm water ( 50° C.) before evaporation of the solvent at 45° C. for 15 min with a rotatory evaporator. The pure […] 35 and NADES 39 were mixed undiluted or after dilution 1:50 with phosphate buffered saline (PBS, Lonza, Verviers, Belgium) with the yeast suspension (1:1) in the toxicity studies. […] The concentrations of the excipients were the same as in the respective NADES after evaporation of unbound water. The solutions were diluted totally 1:1 or 1:100 with PBS and yeast suspension in the toxicity studies. […] The overnight cultures were centrifuged (4000 g, 22° C., 10 min), the medium replaced and diluted with PBS to OD600 0.1.

[5] = system: P. aeruginosa (ATCC 9027); experiment: Phototoxicity studies, blue light 27 J/cm^2 or dark (Example 7); format: cell-based, Pseudomonas aeruginosa
Procedure: as §2
(§5) The concentrations were adjusted give a final concentration of 1-20 nM porphyrin in the bacterial suspension after dilution with PBS (see Table 9). Aqueous solutions of 2.7 M citric acid, 2.3 M xylitol, 2.5 M sucrose, 5 M choline chloride and pure NADES, respectively, were used to investigate the toxicity of the individual compounds and NADES without a photosensitiser. The concentrations of the excipients were the same as in the respective NADES after evaporation of unbound water. The solutions were diluted totally 1:200 (or more) in the bacterial studies.
(§6) The treatments were performed with four parallels.
(§7) Gram-positive bacteria are generally considered to be more susceptible to photodynamic therapy than Gram-negative bacteria. Therefore, S. epidermidis was incubated for 10 min (37° C.), irradiated with blue light for 10 min (9.5 J/cm^2) and incubated again for 10 min while K. pneumoniae and P. aeruginosa were incubated for 30 min (37° C.), irradiated with blue light for 30 min (27 J/cm^2) and incubated again for 30 min.

[6] = system: K. pneumoniae (ATCC 31844); experiment: as above; format: cell-based, Klebsiella pneumoniae; conditions: ±SD, n = 4
Procedure: as §2, §5, §6, §7

[7] = system: S. epidermidis (ATCC 35984); experiment: Phototoxicity studies, blue light 9.5 J/cm^2 or dark (Example 7); format: cell-based, Staphylococcus epidermidis; conditions: ±SD, n = 4
Procedure: as §2, §5, §6, §7

[8] = Polarity (ENR) testing with Nile red; format: physicochemical; conditions: Nile red absorption maximum
Procedure: Polarity (ENR) testing of NADES was performed with Nile red (NR) as a solvatochromatic probe. A small amount of NR was added to each deep eutectic solvent. The recorded absorption maximum (λmax) of NR was applied in the formula ENR (kcal/mol^−1)=hcλmaxNA=28591/λmax where h is Planck's constant, c is the velocity of light and NA is Avogadro's number (Ogihara W, et al., Chem Lett 2004; 33: 1414-1415; Saxena R, et al., Chem Phys Lipids 2014; 183: 1-8).

Compound: O=C(O)/C=C\C(=O)O [Maleic acid]
- toxicity to S. aureus ([1]; dilution 1:400): no longer toxic
- eradication of S. aureus ([1]; dilution ratios 1:1 up to 1:200, total treatment 30 min): complete eradication
- eradication of E. faecalis ([2]; dilutions 1:1 to 1:400 with PBS (maleic acid 3.1 M before dilution)): complete eradication
- toxicity to E. coli ([3]; 3.1 M solution, even at dilution 1:400): highly toxic

Compound: tetra-(4-carboxyphenyl)-porphine [TCPP]
- viable S. aureus after treatment ([1]; 1 nM TCPP in NADES 3, light): no viable bacteria detected
- phototoxicity to S. aureus ([1]; 1 nM TCPP in pure PBS): killed half of the viable bacteria
- photoinactivation of S. aureus ([1]; TCPP up to 1 μM in PBS): did not result in complete photoinactivation
- photoinactivation of S. aureus ([1]; TCPP up to 1 μM in pH-neutral NADES 26): did not result in complete photoinactivation
- eradication of E. faecalis after photodynamic treatment ([2]; 1 nM TCPP in acidic NADES 3): almost complete eradication
- eradication of E. faecalis after photodynamic treatment ([2]; 1 nM TCPP in acidic NADES 14): almost complete eradication
- eradication of E. faecalis after photodynamic treatment ([2]; 1 nM TCPP in acidic NADES 40): almost complete eradication
- eradication of E. faecalis after photodynamic treatment ([2]; 1 nM TCPP in citric acid solution): almost complete eradication
- phototoxicity to E. faecalis ([2]; 1 nM TCPP in pure PBS): not very phototoxic
- eradication of E. faecalis after light treatment ([2]; 1 μM TCPP in neutral NADES 26): complete eradication
- surviving colony forming units ([2]; 1 μM TCPP in pure PBS, light, E. faecalis): approximately 300 colony forming units
- phototoxicity to E. coli ([3]; 1 nM TCPP): not phototoxic
- phototoxicity to E. coli ([3]; 40 nM TCPP in pure PBS): not phototoxic
- photoinactivation of E. coli ([3]; 0.6 μM TCPP in NADES 40): complete photoinactivation
- surviving colony forming units per ml ([3]; 0.6 μM TCPP in citric acid solution, light, E. coli): 20 000 colony forming units per ml

Compound: O=C(CO)[C@@H](O)[C@H](O)[C@H](O)CO [fructose, D-(−)-fructose]
- reduction in viable C. albicans [4]: No significant reduction
- toxicity of individual NADES component to E. faecalis [2]: not toxic

Compound: OC[C@@H](O)[C@H](O)[C@@H](O)CO [Xylitol]
- % survival (27 J/cm^2) ([5]; Dilution 1:200, blue light, ±SD, n = 4): 143 ± 17%
- % survival (dark) ([5]; Dilution 1:200, no irradiation, ±SD, n = 4): 140 ± 19%
- toxicity to P. aeruginosa ([5]; individual components of NADES 35, dilution 1:800): not toxic at all
- reduction in viable C. albicans [4]: No significant reduction
- toxicity of NADES 26 components to E. coli ([3]; choline chloride 5 M, xylitol […]): non-toxic
- % survival (27 J/cm^2) ([6]; Dilution 1:200, blue light): 74 ± 17%
- % survival (dark) ([6]; Dilution 1:200, no irradiation): 72 ± 19%
- % survival (9.5 J/cm^2) ([7]; Dilution 1:200, blue light): 118 ± 12%
- % survival (dark) ([7]; Dilution 1:200, no irradiation): 98 ± 10%

Compound: CO [methanol]
- ENR [8]: 217 kJ/mol

Source: patent US10111842B2, “Eutectic solvents and uses thereof” (UNIVERSITY OF OSLO, priority 2014, dated 2018)
